# Laboratory results published in US20240216369A1, “THE USE OF A SPLICING MODULATOR FOR A TREATMENT SLOWING PROGRESSION OF HUNTINGTON'S DISEASE” (Novartis AG, priority 2019, published 2024).
# Tests used:
# tHTT = assay: Mutant and total HTT multiplex HTRF assay in Q48 HTT human embryonic stem cell line: tHTT; assay type: cell-based; settings: Q48 HTT hESC, 48 hours
# Method: (§1) The multiplex assay is performed in human embryonic stem cells (hESCs) which have been derived by Genea Biocells from human blastocysts of HD donors. Cells are plated at a density of 10,000 cells/well into 384-well collagen coated plates and left to adhere for 24 hours, compounds 1 to 82 are then added to cells and incubated for 48 hours (37° C., 5% CO2), cells are then lysed and the contents split into a black 384-well plate.
# (§2) The black plates have a combination of HTRF labeled monoclonal antibodies added which recognize discrete areas of the HTT protein, the 2B7-Tb “donor” antibody (0.2 ng/well) recognizes a sequence at the N-terminus of the protein, an MW1-Alexa488 “acceptor 1” antibody (30 ng/well) recognizes an area in the polyQ region, whereas a MAB2166-d2 “acceptor 2” antibody (6 ng/well) recognizes a sequence beyond the polyQ region. The 2B7 antibody was obtained from Coriell (CH02024), the MW1 antibody from Millipore (MABN2427), and the MAB2166 antibody from Millipore (1HU-4C8).
# (§3) These detection reagents are incubated with the cell lysate at room temperature for 4-6 hours before having their fluorescence quantified at 615 nm (donor) and 535 nm and 665 nm (acceptor 1 and 2 respectively). The donor/acceptor ratio between these signals indicates the relative quantities of mHTT and tHTT proteins. As shown in the Table 1, compounds 1 to 82 as described therein and in Table 2, had the following pIC50 values.
# mHTT = assay: Mutant and total HTT multiplex HTRF assay in Q48 HTT human embryonic stem cell line: mHTT; assay type: cell-based; settings: Q48 HTT hESC, 48 hours
# Method: as §1, §2, §3
SMILES,tHTT pIC50 (tHTT),Rating (based on mHTT potency) (mHTT),mHTT pIC50 (mHTT)
"CN(c1ccc(-c2c(O)cc(-c3ccn(C)c(=O)c3)cc2F)nn1)C1CC(C)(C)NC(C)(C)C1 [Compound 23, 4-(3-fluoro-5-hydroxy-4-(6-(methyl(2,2,6,6-tetramethylpiperidin-4-yl)amino)pyridazin-3-yl)phenyl)-1-methylpyridin-2(1H)-one]",7.17,**** (a pIC50 value between 7.0 and 7.5 is indicated by four stars (****)),7.1895
"CCn1ccc2cc(O)c(-c3ccc(OC4CC(C)(C)NC(C)(C)C4)nn3)cc2c1=O [Compound 24, 2-ethyl-6-hydroxy-7-(6-((2,2,6,6-tetramethylpiperidin-4-yl)oxy)pyridazin-3-yl)isoquinolin-1(2H)-one]",7.168,**** (a pIC50 value between 7.0 and 7.5 is indicated by four stars (****)),7.186
"CN(c1ccc(-c2cc3c(O)nccc3cc2O)nn1)C1CC(C)(C)NC(C)(C)C1 [Compound 25, 7-(6-(methyl(2,2,6,6-tetramethylpiperidin-4-yl)amino)pyridazin-3-yl)isoquinoline-1,6-diol]",7.128,**** (a pIC50 value between 7.0 and 7.5 is indicated by four stars (****)),7.161
"CN(c1ccc(-c2ccc(-c3ccn(C4CC4)c(=O)c3)cc2O)nn1)C1CC(C)(C)NC(C)(C)C1 [Compound 26, 1-cyclopropyl-4-(3-hydroxy-4-(6-(methyl(2,2,6,6-tetramethylpiperidin-4-yl)amino)pyridazin-3-yl)phenyl)pyridin-2(1H)-one]",7.0435,**** (a pIC50 value between 7.0 and 7.5 is indicated by four stars (****)),7.1215
"Oc1cc(-c2cn[nH]c2)cc(F)c1-c1nnc(N2C[C@H]3CNC[C@H]3C2)s1 [Compound 27, 3-fluoro-2-(5-((3aR,6aS)-hexahydropyrrolo[3,4-c]pyrrol-2(1H)-yl)-1,3,4-thiadiazol-2-yl)-5-(1H-pyrazol-4-yl)phenol]",7.085,**** (a pIC50 value between 7.0 and 7.5 is indicated by four stars (****)),7.1125
"CN(c1ccc(-c2cc3cnn(C)c3cc2O)nn1)C1CC(C)(C)NC(C)(C)C1 [Compound 28, 1-methyl-5-(6-(methyl(2,2,6,6-tetramethylpiperidin-4-yl)amino)pyridazin-3-yl)-1H-indazol-6-ol]",7.1045,**** (a pIC50 value between 7.0 and 7.5 is indicated by four stars (****)),7.111
"Cn1ccc(-c2ccc(-c3ccc(OC4CC(C)(C)NC(C)(C)C4)nn3)c(O)c2)cc1=O [Compound 29, 4-(3-hydroxy-4-(6-((2,2,6,6-tetramethylpiperidin-4-yl)oxy)pyridazin-3-yl)phenyl)-1-methylpyridin-2(1H)-one]",7.074,**** (a pIC50 value between 7.0 and 7.5 is indicated by four stars (****)),7.0855
"Cc1cc2cc(O)c(-c3ccc(N(C)C4CC(C)(C)NC(C)(C)C4)nn3)cc2cn1 [Compound 30, 3-methyl-7-(6-(methyl(2,2,6,6-tetramethylpiperidin-4-yl)amino)pyridazin-3-yl)isoquinolin-6-ol]",7.0835,**** (a pIC50 value between 7.0 and 7.5 is indicated by four stars (****)),7.08
"CN(c1ccc(-c2cc3ncccc3cc2O)nn1)C1CC(C)(C)NC(C)(C)C1 [Compound 31, 7-(6-(methyl(2,2,6,6-tetramethylpiperidin-4-yl)amino)pyridazin-3-yl)quinolin-6-ol]",7.0015,**** (a pIC50 value between 7.0 and 7.5 is indicated by four stars (****)),7.0275
"CN1C[C@@H]2CN(c3ccc(-c4ccc(-c5cn[nH]c5)cc4O)nn3)C[C@@H]2C1 [Compound 32, 2-(6-((3aR,6aS)-5-methylhexahydropyrrolo[3,4-c]pyrrol-2(1H)-yl)pyridazin-3-yl)-5-(1H-pyrazol-4-yl)phenol]",7.0625,**** (a pIC50 value between 7.0 and 7.5 is indicated by four stars (****)),7.0085
"CN(c1ccc(-c2cc3c(cc2O)-c2nc(N)sc2C3)nn1)C1CC(C)(C)NC(C)(C)C1 [Compound 33, 2-amino-6-(6-(methyl(2,2,6,6-tetramethylpiperidin-4-yl)amino)pyridazin-3-yl)-8H-indeno[1,2-d]thiazol-5-ol]",7.001,**** (a pIC50 value between 7.0 and 7.5 is indicated by four stars (****)),7.0085
"CC1(C)CC(Oc2ccc(-c3ccc(-n4cccn4)cc3O)nn2)CC(C)(C)N1 [Compound 34, 5-(1H-pyrazol-1-yl)-2-(6-(2,2,6,6-tetramethylpiperidin-4-yloxy)pyridazin-3-yl)phenol]",6.9475,**** (a pIC50 value between 7.0 and 7.5 is indicated by four stars (****)),7.004
"Cc1cc(-c2ccc(-c3ccc(N(C)C4CC(C)(C)NC(C)(C)C4)nn3)c(O)c2)ccn1 [Compound 35, 2-(6-(methyl(2,2,6,6-tetramethylpiperidin-4-yl)amino)pyridazin-3-yl)-5-(2-methylpyridin-4-yl)phenol]",6.877,**** (a pIC50 value between 7.0 and 7.5 is indicated by four stars (****)),7.003
"Oc1cc(-c2cn[nH]c2)cc(F)c1-c1nnc(N2CC3(CCNCC3)C2)s1 [Compound 36, 2-(5-(2,7-diazaspiro[3.5]nonan-2-yl)-1,3,4-thiadiazol-2-yl)-3-fluoro-5-(1H-pyrazol-4-yl)phenol]",6.827,*** (a pIC50 value between 6.5 and 7.0 is indicated by three stars (***)),6.996
"CC1(C)CC(Oc2ccc(-c3cc4ccc(O)cc4cc3O)nn2)CC(C)(C)N1 [Compound 37, 3-(6-(2,2,6,6-tetramethylpiperidin-4-yloxy)pyridazin-3-yl)naphthalene-2,7-diol]",7.121,*** (a pIC50 value between 6.5 and 7.0 is indicated by three stars (***)),6.98
"Cc1cnc2cc(-c3ccc(N(C)C4CC(C)(C)NC(C)(C)C4)nn3)c(O)cc2n1 [Compound 38, 3-methyl-7-(6-(methyl(2,2,6,6-tetramethylpiperidin-4-yl)amino)pyridazin-3-yl)quinoxalin-6-ol]",7.0015,*** (a pIC50 value between 6.5 and 7.0 is indicated by three stars (***)),6.9735
"CN(c1ccc(-c2cc3nccnc3cc2O)nn1)C1CC(C)(C)NC(C)(C)C1 [Compound 39, 7-(6-(methyl(2,2,6,6-tetramethylpiperidin-4-yl)amino)pyridazin-3-yl)quinoxalin-6-ol]",6.9105,*** (a pIC50 value between 6.5 and 7.0 is indicated by three stars (***)),6.946
